Experimental findings from ChEMBL document CHEMBL1138235, “Discovery of dibenzo[c,f][2,7]naphthyridines as potent and selective 3-phosphoinositide-dependent kinase-1 inhibitors” (J Med Chem, 2007) are described below.

pIC50: −log10 of the molar value.

Assay [1] deals with T1, 3-phosphoinositide-dependent protein kinase 1 (Homo sapiens, UniProt O15530).
T1 sequence (O15530 whole entry): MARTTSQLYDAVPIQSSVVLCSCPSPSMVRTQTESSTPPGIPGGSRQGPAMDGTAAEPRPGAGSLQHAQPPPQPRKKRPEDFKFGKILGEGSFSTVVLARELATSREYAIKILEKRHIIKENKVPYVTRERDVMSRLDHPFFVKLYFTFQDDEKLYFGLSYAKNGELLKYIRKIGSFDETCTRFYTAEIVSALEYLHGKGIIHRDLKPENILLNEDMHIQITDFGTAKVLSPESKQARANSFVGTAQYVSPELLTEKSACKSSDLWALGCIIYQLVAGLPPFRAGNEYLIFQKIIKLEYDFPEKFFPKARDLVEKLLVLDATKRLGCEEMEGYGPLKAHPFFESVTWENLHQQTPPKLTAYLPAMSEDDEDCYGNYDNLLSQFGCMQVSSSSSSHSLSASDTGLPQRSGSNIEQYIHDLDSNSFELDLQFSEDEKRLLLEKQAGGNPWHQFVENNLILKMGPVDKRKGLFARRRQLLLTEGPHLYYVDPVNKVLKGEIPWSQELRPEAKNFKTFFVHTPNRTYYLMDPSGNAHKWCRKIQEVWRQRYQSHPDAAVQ
The assay can be described thus: Inhibition of PDK1.

A short description of assay [2]: Inhibition of MEK. More on the design: species or system Homo sapiens.
Assay [3] has as its target T2, Serine/threonine-protein kinase Sgk1 (Homo sapiens, UniProt O00141).
T2 sequence (O00141 whole entry): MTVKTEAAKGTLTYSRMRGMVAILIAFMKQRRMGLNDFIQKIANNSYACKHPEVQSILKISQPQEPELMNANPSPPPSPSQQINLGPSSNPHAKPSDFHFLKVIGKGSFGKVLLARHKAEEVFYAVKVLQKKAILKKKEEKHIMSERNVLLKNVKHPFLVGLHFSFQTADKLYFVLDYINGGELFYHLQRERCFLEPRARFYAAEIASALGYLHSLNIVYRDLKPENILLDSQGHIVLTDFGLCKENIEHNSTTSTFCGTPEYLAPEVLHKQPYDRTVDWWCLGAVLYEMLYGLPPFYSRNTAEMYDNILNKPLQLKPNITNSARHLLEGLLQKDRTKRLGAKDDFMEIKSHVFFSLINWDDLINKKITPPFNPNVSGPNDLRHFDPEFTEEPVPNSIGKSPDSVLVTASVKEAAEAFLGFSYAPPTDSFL
The assay can be described thus: Inhibition of SGK1.

Assay [4] is described as follows: Inhibition of TPL2. More on the design: species or system Homo sapiens.
In a further assay the test system is DU-145. The assay can be described thus: Growth inhibition of DU145 cells. As to conditions: Homo sapiens. The format is functional, cell-based.
Assay [5] in a line: Inhibition of PKA. More on the design: species or system Homo sapiens.
The test system of a further assay is K562. The assay can be described thus: Growth inhibition of K562 cells. The format is functional, cell-based. As to conditions: Homo sapiens.
Assay [6] is described as follows: Inhibition of CAMII. More on the design: species or system Homo sapiens.
Assay [7] has as its target RAC-alpha serine/threonine-protein kinase (Homo sapiens, UniProt P31749). The assay can be described thus: Inhibition of AKT.
The target in assay [8] is Cyclin-dependent kinase 4 (Homo sapiens, UniProt P11802). The assay can be described thus: Inhibition of CDK4.
Assay [9] in a line: Growth inhibition of PC-3mm2 cells. The format is functional, cell-based. As to conditions: Homo sapiens, PC3MM2.
The test system of the next assay is SW-620. The assay can be described thus: Growth inhibition of SW620 cells. As to conditions: Homo sapiens. The format is functional, cell-based.
Assay [10] addresses MAP kinase-activated protein kinase 2 (Homo sapiens, UniProt P49137). The assay can be described thus: Inhibition of MK2.
The target in assay [11] is Inhibitor of NF-kappa-B kinase (IKK) (Homo sapiens, UniProt O14920+O15111+Q9Y6K9). The assay can be described thus: Inhibition of IKK. The format is protein-complex assay.
The target of assay [12] is Ribosomal protein S6 kinase beta-1 (Homo sapiens, UniProt P23443). The assay can be described thus: Inhibition of S6K.
In assay [13] the target is Proto-oncogene tyrosine-protein kinase Src (Homo sapiens, UniProt P12931). The assay can be described thus: Inhibition of Src.
In the next assay the test system is MDA-MB-468. The assay can be described thus: Growth inhibition of MDA-MB-468 cells. In kind it is functional, cell-based. To be noted: Homo sapiens.
A short description of assay [14]: Growth inhibition of M49-5 cells. In kind it is functional, cell-based. As to conditions: Homo sapiens.
Assay [15] can be described thus: Inhibition of P38. More on the design: species or system Homo sapiens.
For another assay, the system named is HCT-116. The assay can be described thus: Growth inhibition of HCT116 cells. In kind it is functional, cell-based. To be noted: Homo sapiens.

Sequence of MAP kinase-activated protein kinase 2 (P49137 whole entry): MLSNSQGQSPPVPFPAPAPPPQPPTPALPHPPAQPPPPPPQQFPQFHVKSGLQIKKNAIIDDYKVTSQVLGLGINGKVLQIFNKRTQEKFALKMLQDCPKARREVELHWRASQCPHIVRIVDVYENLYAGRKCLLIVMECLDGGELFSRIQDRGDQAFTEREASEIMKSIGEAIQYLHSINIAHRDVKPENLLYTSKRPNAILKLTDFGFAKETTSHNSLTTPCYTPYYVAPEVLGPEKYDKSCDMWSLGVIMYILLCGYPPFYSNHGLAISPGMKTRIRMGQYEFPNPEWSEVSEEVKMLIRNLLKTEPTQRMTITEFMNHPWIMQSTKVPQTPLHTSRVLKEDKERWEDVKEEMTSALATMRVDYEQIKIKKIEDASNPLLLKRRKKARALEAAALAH
Sequence of Proto-oncogene tyrosine-protein kinase Src (P12931 2-536 limits assumed): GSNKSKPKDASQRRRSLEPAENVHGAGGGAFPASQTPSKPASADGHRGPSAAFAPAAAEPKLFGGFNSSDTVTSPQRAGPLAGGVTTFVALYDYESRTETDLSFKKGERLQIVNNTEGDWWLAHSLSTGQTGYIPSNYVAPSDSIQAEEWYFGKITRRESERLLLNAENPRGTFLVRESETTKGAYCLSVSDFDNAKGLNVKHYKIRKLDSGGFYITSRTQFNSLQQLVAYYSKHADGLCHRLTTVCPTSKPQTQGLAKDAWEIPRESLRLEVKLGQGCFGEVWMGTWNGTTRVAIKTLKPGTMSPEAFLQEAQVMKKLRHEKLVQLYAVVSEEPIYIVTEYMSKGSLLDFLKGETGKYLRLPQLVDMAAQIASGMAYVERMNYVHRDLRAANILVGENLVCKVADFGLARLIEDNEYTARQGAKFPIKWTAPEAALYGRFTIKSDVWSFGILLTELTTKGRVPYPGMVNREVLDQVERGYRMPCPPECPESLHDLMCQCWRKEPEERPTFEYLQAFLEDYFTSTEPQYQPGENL
Sequence of Inhibitor of NF-kappa-B kinase (IKK) (O14920 whole entry): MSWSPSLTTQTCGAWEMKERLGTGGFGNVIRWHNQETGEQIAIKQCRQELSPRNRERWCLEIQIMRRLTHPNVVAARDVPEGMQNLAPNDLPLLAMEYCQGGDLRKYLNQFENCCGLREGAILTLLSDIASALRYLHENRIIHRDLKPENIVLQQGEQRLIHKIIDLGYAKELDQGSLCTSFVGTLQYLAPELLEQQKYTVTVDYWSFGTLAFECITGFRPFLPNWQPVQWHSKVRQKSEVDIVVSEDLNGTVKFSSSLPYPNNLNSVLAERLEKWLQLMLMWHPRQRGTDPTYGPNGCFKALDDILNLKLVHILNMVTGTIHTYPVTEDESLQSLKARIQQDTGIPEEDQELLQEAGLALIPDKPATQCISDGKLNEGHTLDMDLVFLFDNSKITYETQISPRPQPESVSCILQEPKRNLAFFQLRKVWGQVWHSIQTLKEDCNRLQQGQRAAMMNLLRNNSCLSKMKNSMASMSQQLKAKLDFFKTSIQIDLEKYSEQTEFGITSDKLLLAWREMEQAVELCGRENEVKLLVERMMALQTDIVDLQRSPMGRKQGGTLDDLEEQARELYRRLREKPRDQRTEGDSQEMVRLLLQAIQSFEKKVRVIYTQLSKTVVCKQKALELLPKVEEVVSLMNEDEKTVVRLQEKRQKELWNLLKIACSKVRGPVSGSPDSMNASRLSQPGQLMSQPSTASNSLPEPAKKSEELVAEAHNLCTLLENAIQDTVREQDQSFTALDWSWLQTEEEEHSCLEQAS
Sequence of Inhibitor of NF-kappa-B kinase (IKK) (O15111 whole entry): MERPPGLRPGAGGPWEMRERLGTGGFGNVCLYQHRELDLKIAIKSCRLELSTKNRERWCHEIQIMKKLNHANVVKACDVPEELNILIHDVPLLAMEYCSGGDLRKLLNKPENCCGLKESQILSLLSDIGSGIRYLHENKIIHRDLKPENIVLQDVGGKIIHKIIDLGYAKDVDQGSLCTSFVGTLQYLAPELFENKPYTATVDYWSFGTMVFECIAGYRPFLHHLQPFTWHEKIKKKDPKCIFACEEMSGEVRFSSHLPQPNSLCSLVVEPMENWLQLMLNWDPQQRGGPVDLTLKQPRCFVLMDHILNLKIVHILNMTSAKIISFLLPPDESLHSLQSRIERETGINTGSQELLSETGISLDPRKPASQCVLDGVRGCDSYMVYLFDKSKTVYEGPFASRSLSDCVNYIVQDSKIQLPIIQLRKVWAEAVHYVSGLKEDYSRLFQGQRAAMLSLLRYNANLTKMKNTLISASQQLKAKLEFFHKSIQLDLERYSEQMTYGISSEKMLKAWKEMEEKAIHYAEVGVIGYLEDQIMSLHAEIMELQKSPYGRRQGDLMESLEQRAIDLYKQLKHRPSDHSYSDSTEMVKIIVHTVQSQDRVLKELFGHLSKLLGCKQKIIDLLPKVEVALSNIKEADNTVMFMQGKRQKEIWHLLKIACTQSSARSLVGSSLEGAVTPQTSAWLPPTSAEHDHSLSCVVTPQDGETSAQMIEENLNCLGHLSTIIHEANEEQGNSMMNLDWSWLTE
Sequence of Inhibitor of NF-kappa-B kinase (IKK) (Q9Y6K9 whole entry): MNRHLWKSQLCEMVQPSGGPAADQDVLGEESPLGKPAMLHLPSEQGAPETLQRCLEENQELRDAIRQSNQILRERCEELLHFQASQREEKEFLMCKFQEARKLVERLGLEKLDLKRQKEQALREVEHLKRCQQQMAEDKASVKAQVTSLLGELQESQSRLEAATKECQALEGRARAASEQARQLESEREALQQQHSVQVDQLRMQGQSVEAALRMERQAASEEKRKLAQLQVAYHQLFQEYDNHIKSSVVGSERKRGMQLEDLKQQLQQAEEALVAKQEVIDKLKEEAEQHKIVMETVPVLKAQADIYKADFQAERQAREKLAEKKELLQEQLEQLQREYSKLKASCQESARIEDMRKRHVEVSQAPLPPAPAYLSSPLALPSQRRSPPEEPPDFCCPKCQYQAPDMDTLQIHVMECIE
Sequence of Ribosomal protein S6 kinase beta-1 (P23443 whole entry): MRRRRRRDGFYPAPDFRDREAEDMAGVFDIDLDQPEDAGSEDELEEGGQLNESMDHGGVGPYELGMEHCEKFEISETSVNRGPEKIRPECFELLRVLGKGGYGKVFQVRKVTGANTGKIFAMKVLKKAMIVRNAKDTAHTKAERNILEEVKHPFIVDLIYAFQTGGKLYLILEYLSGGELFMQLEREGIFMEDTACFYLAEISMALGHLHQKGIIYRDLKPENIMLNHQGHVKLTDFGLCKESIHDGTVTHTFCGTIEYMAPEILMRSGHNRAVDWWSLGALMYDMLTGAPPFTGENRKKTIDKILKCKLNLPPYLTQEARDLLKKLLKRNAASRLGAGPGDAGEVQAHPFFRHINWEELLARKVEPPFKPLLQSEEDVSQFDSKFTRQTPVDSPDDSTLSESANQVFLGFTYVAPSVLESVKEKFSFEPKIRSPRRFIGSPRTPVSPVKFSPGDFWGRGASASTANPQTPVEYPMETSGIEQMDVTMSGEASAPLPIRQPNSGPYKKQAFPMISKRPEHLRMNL
Sequence of RAC-alpha serine/threonine-protein kinase (P31749 whole entry): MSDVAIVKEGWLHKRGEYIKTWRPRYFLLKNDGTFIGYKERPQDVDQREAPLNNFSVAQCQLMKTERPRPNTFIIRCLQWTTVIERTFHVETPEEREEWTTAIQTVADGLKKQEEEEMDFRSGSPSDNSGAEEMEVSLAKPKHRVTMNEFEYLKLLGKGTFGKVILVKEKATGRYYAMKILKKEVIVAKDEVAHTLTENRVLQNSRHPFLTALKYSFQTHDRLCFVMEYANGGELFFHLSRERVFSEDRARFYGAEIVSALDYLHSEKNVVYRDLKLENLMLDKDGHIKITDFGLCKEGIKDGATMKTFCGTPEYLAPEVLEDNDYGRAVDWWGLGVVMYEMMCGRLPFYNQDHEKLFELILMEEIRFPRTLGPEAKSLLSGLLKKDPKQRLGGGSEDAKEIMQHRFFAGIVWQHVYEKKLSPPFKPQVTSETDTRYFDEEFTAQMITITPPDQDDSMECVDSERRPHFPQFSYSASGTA
Sequence of Cyclin-dependent kinase 4 (P11802 whole entry): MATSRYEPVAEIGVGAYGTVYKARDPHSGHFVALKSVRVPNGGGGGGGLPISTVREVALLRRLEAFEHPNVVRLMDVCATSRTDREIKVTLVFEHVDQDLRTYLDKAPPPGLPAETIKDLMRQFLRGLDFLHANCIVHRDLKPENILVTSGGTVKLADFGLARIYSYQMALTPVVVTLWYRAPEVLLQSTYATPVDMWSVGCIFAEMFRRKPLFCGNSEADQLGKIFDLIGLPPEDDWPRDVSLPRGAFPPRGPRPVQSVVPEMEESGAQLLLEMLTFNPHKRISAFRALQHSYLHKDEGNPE

`COc1cc2c(cc1OCCCN(C)C)ncc1c(N)nc3c(C)c(N)ccc3c12`: in assay [1], the pIC50 was 6.70.

`COc1cc2ncc3cnc4ccccc4c3c2cc1OC` had a pIC50 in [1] of 5.13.

In assay [1], `COc1cc2c(cc1OCCN1CCOCC1)ncc1c(N)nc3c(C)c(N)ccc3c12` gave a pIC50 of 7.22.

For the compound `COc1cc2c(cc1F)ncc1c(N)nc3c(C)c(N)ccc3c12`, the pIC50 in assay [1] is 6.24.

As for `COc1cc2ncc3c(N)nc4c(C)c(N)ccc4c3c2cc1OC`, the pIC50 was < 5.00 in [2]; < 5.00 in [3]; < 5.00 in [4]; 5.60 in the assay on DU-145; < 5.00 in assay [5]; 6.32 in the assay with K562. Besides, the negative logarithm of the IC50 (pIC50) is < 5.00 in assay [6]; < 5.00 in assay [7]; < 5.00 in assay [8]; 5.37 in assay [9]; 5.41 in the assay with SW-620; < 5.00 in [10]. Also, the negative logarithm of the IC50 (pIC50) in assay [11] is < 5.00; in assay [12], < 5.00; in assay [13] it was < 5.00; in the assay on MDA-MB-468, 5.81; in assay [14], 6.46; in assay [15], < 5.00. Further, the pIC50 with HCT-116 was 5.44.

Compound `COc1cc2ncc3c(N)nc4c(C)c(O)ccc4c3c2cc1OC` showed a pIC50 in assay [1] of 7.40.

In the case of `COc1cc2c(cc1NCCN(C)C)ncc1c(N)nc3c(C)c(N)ccc3c12`, in assay [1], the pIC50 was 5.60.

Regarding `COc1cc2ncc3c(N)nc4c(C)c(Cl)ccc4c3c2cc1OC`, in assay [1], the pIC50 is 5.67.
